From the supplement of paper PMC10307832

Key:
Assay in all cases: relative viability (nuclei count vs DMSO), 5 days (fraction); higher = more cells survive
VX-11e + Lapatinib = compound: CC1=CN=C(N=C1C2=CNC(=C2)C(=O)N[C@H](CO)C3=CC(=CC=C3)Cl)NC4=C(C=C(C=C4)F)Cl [VX-11e] + CS(=O)(=O)CCNCc1ccc(-c2ccc3ncnc(Nc4ccc(OCc5cccc(F)c5)c(Cl)c4)c3c2)o1 [Lapatinib] (partner 2 µM)
In short: (§1)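 The day after seeding in 1536-well plates, lung cancer cell lines were treated by pin tool with a single drug, or with a fixed anchor-drug dose together with five library-drug doses (not always all listed) in √10 steps. After 5 days, a combined fix-and-stain solution (final 0.05% Triton X-100, 1% formaldehyde, 1 ug/ml Hoechst) was added. Nuclei counted on 4× images gave relative viability as treated counts over vehicle counts, reported as the median of duplicate plates.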

VX-11e + Decitabine = compound: CC1=CN=C(N=C1C2=CNC(=C2)C(=O)N[C@H](CO)C3=CC(=CC=C3)Cl)NC4=C(C=C(C=C4)F)Cl [VX-11e] + Nc1ncn([C@H]2C[C@H](O)[C@@H](CO)O2)c(=O)n1 [Decitabine] (partner 2 µM)
In short: as §1

VX-11e + Olaparib = compound: CC1=CN=C(N=C1C2=CNC(=C2)C(=O)N[C@H](CO)C3=CC(=CC=C3)Cl)NC4=C(C=C(C=C4)F)Cl [VX-11e] + O=C(c1cc(Cc2n[nH]c(=O)c3ccccc23)ccc1F)N1CCN(C(=O)C2CC2)CC1 [Olaparib] (partner 8 µM)
In short: as §1

VX-11e + Luminespib = compound: CC1=CN=C(N=C1C2=CNC(=C2)C(=O)N[C@H](CO)C3=CC(=CC=C3)Cl)NC4=C(C=C(C=C4)F)Cl [VX-11e] + CCNC(=O)c1noc(-c2cc(C(C)C)c(O)cc2O)c1-c1ccc(CN2CCOCC2)cc1 [Luminespib] (partner 0.01 µM)
In short: as §1

Cell Line	relative viability (VX-11e + Lapatinib; first compound 0.04 µM)	relative viability (VX-11e + Lapatinib; first compound 0.1265 µM)	relative viability (VX-11e + Lapatinib; first compound 0.4 µM)	relative viability (VX-11e + Lapatinib; first compound 1.265 µM)	relative viability (VX-11e + Lapatinib; first compound 4 µM)	relative viability (VX-11e + Decitabine; first compound 0.1265 µM)	relative viability (VX-11e + Decitabine; first compound 1.265 µM)	relative viability (VX-11e + Decitabine; first compound 4 µM)	relative viability (VX-11e + Olaparib; first compound 0.1265 µM)	relative viability (VX-11e + Olaparib; first compound 1.265 µM)	relative viability (VX-11e + Olaparib; first compound 4 µM)	relative viability (VX-11e + Luminespib; first compound 0.04 µM)	relative viability (VX-11e + Luminespib; first compound 0.1265 µM)	relative viability (VX-11e + Luminespib; first compound 0.4 µM)	relative viability (VX-11e + Luminespib; first compound 1.265 µM)	relative viability (VX-11e + Luminespib; first compound 4 µM)	relative viability (VX-11e + Decitabine; first compound 0.04 µM)	relative viability (VX-11e + Decitabine; first compound 0.4 µM)	relative viability (VX-11e + Olaparib; first compound 0.04 µM)	relative viability (VX-11e + Olaparib; first compound 0.4 µM)
NCI-H1792	0.889	0.91	1	0.86	0.755	0.493	0.619	0.328	0.541	0.518	0.287	0.419	0.351	0.216	0.417	0.225	–	–	–	–
NCI-H2405	1.07	1.01	–	1.05	0.349	0.733	0.776	0.443	0.814	0.873	0.379	0.798	0.719	0.395	0.717	0.296	0.761	0.305	0.961	0.333
NCI-H23	0.875	0.952	0.219	0.393	0.331	0.312	0.284	0.22	0.366	0.324	0.186	0.237	0.225	0.237	0.182	0.185	0.279	0.306	0.292	0.359
LXF-289	0.895	0.869	0.879	0.772	0.634	0.376	0.386	0.406	0.997	1.01	0.736	0.641	0.592	0.659	0.656	0.407	0.364	–	1.15	–
NCI-H1437	0.755	0.754	0.35	0.291	0.228	0.519	0.602	0.494	0.619	0.529	0.476	1.19	1.09	0.996	1.17	0.736	0.589	0.517	0.621	0.653
NCI-H661	0.527	0.5	0.446	0.386	0.314	0.491	0.52	0.432	0.777	0.724	0.61	0.981	0.913	0.937	0.907	0.603	0.514	0.502	0.779	0.719
PC-3 [JPC-3]	0.384	0.485	0.436	0.453	0.445	0.813	0.788	0.705	1.09	1.19	0.901	0.627	0.595	0.66	0.744	0.591	0.839	0.809	1.23	1.09
PC-14	0.275	0.327	0.251	0.35	0.203	0.19	0.247	0.235	0.261	0.22	0.214	0.199	0.173	–	0.112	0.172	0.243	0.202	0.269	0.222
NCI-H838	0.856	0.92	0.396	0.701	0.627	0.428	0.474	0.524	0.802	0.738	0.671	0.413	0.273	0.207	0.347	0.264	0.44	0.447	0.785	0.702
201T	0.948	0.988	0.943	0.816	0.942	0.84	0.831	0.758	0.809	0.792	0.773	1.06	1.06	1.09	1.05	0.918	0.868	0.831	0.846	0.832
Calu-6	1.07	1.03	1.05	0.364	0.226	–	–	–	0.579	0.31	0.108	–	–	–	–	–	–	–	0.672	0.562
NCI-H441	–	–	–	–	–	0.273	0.218	0.306	0.572	0.702	0.591	0.345	0.31	–	0.459	0.323	0.282	–	0.553	–
NCI-H1299	0.984	0.953	1.1	0.918	0.559	–	–	–	0.967	0.92	0.519	–	–	–	–	–	–	–	1	0.968
CAL-12T	–	–	0.544	0.565	0.348	–	–	–	0.718	0.618	0.316	0.392	0.434	0.462	0.433	0.276	–	–	0.802	0.732
LCLC-103H	–	–	–	–	–	0.701	0.742	0.608	0.748	0.638	0.667	0.98	0.698	1.03	0.83	0.785	0.726	0.726	0.787	0.719
NCI-H1703	1.49	1.18	–	1.08	0.791	–	–	–	0.591	0.393	0.316	–	–	–	–	–	–	–	0.403	–
HCC-366	1	0.971	–	0.879	0.759	0.348	0.322	0.217	0.372	0.271	0.208	–	–	–	–	–	0.402	–	0.386	–
ChaGo-K-1	–	–	–	–	–	0.495	0.51	0.5	0.473	0.43	0.378	0.633	0.646	0.561	0.688	0.507	0.534	0.511	0.451	0.416
IA-LM	0.71	0.945	0.853	0.17	0.126	–	–	–	0.864	0.536	0.173	–	–	–	–	–	–	–	0.877	0.963
HCC-78	1.37	0.884	0.944	0.384	0.526	0.698	0.775	0.786	0.639	0.963	0.754	–	–	–	–	–	0.721	0.676	0.852	0.834
